In the NIST ThermoML archive (doi:10.1016/j.jct.2016.08.008):
Numbers after ± are expanded uncertainties.

Test: activity coefficient (dimensionless); of the first substance listed, at infinite dilution; xn = mol fraction of the nth substance listed
Details: 101.33 kPa, Liquid, Chromatography, x1 = 0

Compound | activity coefficient (318.15 K) | activity coefficient (328.15 K) | activity coefficient (338.15 K) | activity coefficient (348.15 K) | activity coefficient (358.15 K) | activity coefficient (368.15 K)
CCC(=O)CC [pentan-3-one] + CCCCCCCCCCCCn1cc[n+](C)c1.O=S(=O)([N-]S(=O)(=O)C(F)(F)F)C(F)(F)F | 0.418 ± 0.035 | 0.444 ± 0.036 | 0.47 ± 0.037 | 0.496 ± 0.038 | 0.521 ± 0.039 | 0.546 ± 0.04
CCCCCO [pentan-1-ol] + CCCCCCCCCCCCn1cc[n+](C)c1.O=S(=O)([N-]S(=O)(=O)C(F)(F)F)C(F)(F)F | 1.52 ± 0.1 | 1.46 ± 0.1 | 1.4 ± 0.09 | 1.35 ± 0.09 | 1.3 ± 0.08 | 1.26 ± 0.08
CC(C)OC(C)C [diisopropyl ether] + CCCCCCCCCCCCn1cc[n+](C)c1.O=S(=O)([N-]S(=O)(=O)C(F)(F)F)C(F)(F)F | 1.65 ± 0.11 | 1.72 ± 0.12 | 1.79 ± 0.12 | 1.86 ± 0.13 | 1.93 ± 0.13 | 1.99 ± 0.14
C=CCCCCCC [oct-1-ene] + CCCCCCCCCCCCn1cc[n+](C)c1.O=S(=O)([N-]S(=O)(=O)C(F)(F)F)C(F)(F)F | 3.03 ± 0.21 | 3.1 ± 0.21 | 3.17 ± 0.22 | 3.23 ± 0.22 | 3.29 ± 0.22 | 3.35 ± 0.23
CC(C)CC(C)(C)C [2,2,4-trimethylpentane] + CCCCCCCCCCCCn1cc[n+](C)c1.O=S(=O)([N-]S(=O)(=O)C(F)(F)F)C(F)(F)F | 3.59 ± 0.24 | 3.66 ± 0.25 | 3.72 ± 0.25 | 3.79 ± 0.26 | 3.85 ± 0.26 | 3.91 ± 0.27
CCC(C)O (configuration not stated) [butan-2-ol] + CCCCCCCCCCCCn1cc[n+](C)c1.O=S(=O)([N-]S(=O)(=O)C(F)(F)F)C(F)(F)F | 1.29 ± 0.08 | 1.23 ± 0.08 | 1.18 ± 0.08 | 1.13 ± 0.07 | 1.09 ± 0.07 | 1.05 ± 0.07
C#CCCCCC [1-heptyne] + CCCCCCCCCCCCn1cc[n+](C)c1.O=S(=O)([N-]S(=O)(=O)C(F)(F)F)C(F)(F)F | 1.47 ± 0.1 | 1.53 ± 0.1 | 1.59 ± 0.11 | 1.65 ± 0.11 | 1.7 ± 0.11 | 1.76 ± 0.12
CCOC(C)=O [ethyl acetate] + CCCCCCCCCCCCn1cc[n+](C)c1.O=S(=O)([N-]S(=O)(=O)C(F)(F)F)C(F)(F)F | 0.541 ± 0.04 | 0.567 ± 0.041 | 0.593 ± 0.042 | 0.619 ± 0.043 | 0.645 ± 0.044 | 0.67 ± 0.045
CCOC(C)(C)C [2-ethoxy-2-methylpropane] + CCCCCCCCCCCCn1cc[n+](C)c1.O=S(=O)([N-]S(=O)(=O)C(F)(F)F)C(F)(F)F | 1.55 ± 0.1 | 1.62 ± 0.11 | 1.69 ± 0.11 | 1.75 ± 0.12 | 1.82 ± 0.12 | 1.88 ± 0.13
C=CCCCCC [1-heptene] + CCCCCCCCCCCCn1cc[n+](C)c1.O=S(=O)([N-]S(=O)(=O)C(F)(F)F)C(F)(F)F | 2.56 ± 0.17 | 2.62 ± 0.18 | 2.68 ± 0.18 | 2.74 ± 0.19 | 2.8 ± 0.19 | 2.85 ± 0.19
CCCc1ccccc1 [propylbenzene] + CCCCCCCCCCCCn1cc[n+](C)c1.O=S(=O)([N-]S(=O)(=O)C(F)(F)F)C(F)(F)F | 1.1 ± 0.07 | 1.15 ± 0.07 | 1.21 ± 0.08 | 1.25 ± 0.08 | 1.3 ± 0.08 | 1.35 ± 0.09
CCc1ccccc1 [ethylbenzene] + CCCCCCCCCCCCn1cc[n+](C)c1.O=S(=O)([N-]S(=O)(=O)C(F)(F)F)C(F)(F)F | 0.911 ± 0.058 | 0.951 ± 0.06 | 0.992 ± 0.062 | 1.03 ± 0.06 | 1.07 ± 0.07 | 1.11 ± 0.07
C1CCCCC1 [cyclohexane] + CCCCCCCCCCCCn1cc[n+](C)c1.O=S(=O)([N-]S(=O)(=O)C(F)(F)F)C(F)(F)F | 2.14 ± 0.15 | 2.15 ± 0.15 | 2.17 ± 0.15 | 2.18 ± 0.15 | 2.19 ± 0.15 | 2.21 ± 0.15
CCCCCCC [heptane] + CCCCCCCCCCCCn1cc[n+](C)c1.O=S(=O)([N-]S(=O)(=O)C(F)(F)F)C(F)(F)F | 3.55 ± 0.24 | 3.6 ± 0.25 | 3.65 ± 0.25 | 3.7 ± 0.25 | 3.74 ± 0.25 | 3.78 ± 0.26
Cc1ccccc1 [toluene] + CCCCCCCCCCCCn1cc[n+](C)c1.O=S(=O)([N-]S(=O)(=O)C(F)(F)F)C(F)(F)F | 0.699 ± 0.047 | 0.732 ± 0.048 | 0.765 ± 0.05 | 0.8 ± 0.052 | 0.832 ± 0.054 | 0.864 ± 0.055
c1ccsc1 [thiophene] + CCCCCCCCCCCCn1cc[n+](C)c1.O=S(=O)([N-]S(=O)(=O)C(F)(F)F)C(F)(F)F | 0.559 ± 0.04 | 0.579 ± 0.041 | 0.6 ± 0.042 | 0.62 ± 0.043 | 0.639 ± 0.044 | 0.658 ± 0.045
CCC(C)(C)OC [2-methoxy-2-methylbutane] + CCCCCCCCCCCCn1cc[n+](C)c1.O=S(=O)([N-]S(=O)(=O)C(F)(F)F)C(F)(F)F | 1.11 ± 0.07 | 1.17 ± 0.07 | 1.23 ± 0.08 | 1.29 ± 0.08 | 1.35 ± 0.09 | 1.4 ± 0.09
C#CCCCC [1-hexyne] + CCCCCCCCCCCCn1cc[n+](C)c1.O=S(=O)([N-]S(=O)(=O)C(F)(F)F)C(F)(F)F | 1.25 ± 0.08 | 1.3 ± 0.08 | 1.35 ± 0.09 | 1.4 ± 0.09 | 1.45 ± 0.1 | 1.49 ± 0.1
CC#N [acetonitrile] + CCCCCCCCCCCCn1cc[n+](C)c1.O=S(=O)([N-]S(=O)(=O)C(F)(F)F)C(F)(F)F | 0.508 ± 0.038 | 0.515 ± 0.038 | 0.524 ± 0.039 | 0.531 ± 0.039 | 0.539 ± 0.039 | 0.545 ± 0.04
CC(C)CO [2-methyl-1-propanol] + CCCCCCCCCCCCn1cc[n+](C)c1.O=S(=O)([N-]S(=O)(=O)C(F)(F)F)C(F)(F)F | 1.52 ± 0.1 | 1.42 ± 0.09 | 1.34 ± 0.09 | 1.26 ± 0.08 | 1.19 ± 0.08 | 1.13 ± 0.07
C1=CCCCC1 [cyclohexene] + CCCCCCCCCCCCn1cc[n+](C)c1.O=S(=O)([N-]S(=O)(=O)C(F)(F)F)C(F)(F)F | 1.56 ± 0.1 | 1.59 ± 0.11 | 1.62 ± 0.11 | 1.65 ± 0.11 | 1.68 ± 0.11 | 1.71 ± 0.11
Cc1cccc(C)c1 [1,3-dimethylbenzene] + CCCCCCCCCCCCn1cc[n+](C)c1.O=S(=O)([N-]S(=O)(=O)C(F)(F)F)C(F)(F)F | 0.874 ± 0.056 | 0.918 ± 0.058 | 0.96 ± 0.06 | 1 ± 0.06 | 1.04 ± 0.07 | 1.09 ± 0.07
